Reference: patent publication US9227982B2 (NOVARTIS AG, priority 2011, dated 2016)
Like-named read-outs stand apart in the source and are kept apart here.

Assays:
[1] = test system: Wnt ligand-induced signaling; assay: Wnt-responsive Super-TOpFlash (STF) luciferase reporter gene assay in HEK293 cells; format: cell-based; settings: 20% Wnt3A conditioned medium, read-out: HEK293STF IC50
Description: Cellular Reporter Gene Assay to Determine Compound Inhibition of Wnt Signaling Activity
Compound activity in inhibiting Wnt ligand-induced signaling was measured using a Wnt-responsive Super-TOpFlash (STF) luciferase reporter gene assay in HEK293 cells. On day 1 of the assay, cells were plated at a density of 8000 cells per well of 384-well plate in 25 μl medium containing 5% fetal bovine serum (FBS). On the second day, […] condition medium (CM) produced from mouse L cells was added to the cells to induce Wnt signaling, followed by addition of 5 μL of compounds each well in 10-point serial dilution. On the third day, the luciferase activity was measured by the Bright-Glo™ Luciferase Assay System following manufacture's protocol (Promega, E2620). The Inhibition was calculated as: (Maximum Wnt-induced signaling−Sample)/(Maximum Wnt-induced signaling−Background)*100. “Maximum Wnt-induced signaling” is the STF signal level induced by 20% Wnt3A CM without compound; and “Background” is the STF signal level without the addition of Wnt3A CM or compound.

[2] = biological target: human tankyrase 1 PARP catalytic domain, TNKS1P (Homo sapiens (Human), UniProt O95271); assay: TNKS1 autoparsylation enzymatic assay (LC/MS detection of nicotinamide); format: biochemical; settings: 20 nM enzyme, 250 μM β-NAD+, 60 min, read-out: TNKS1 AP IC50
human tankyrase 1 PARP catalytic domain, TNKS1P, sequence (O95271 1112-1317): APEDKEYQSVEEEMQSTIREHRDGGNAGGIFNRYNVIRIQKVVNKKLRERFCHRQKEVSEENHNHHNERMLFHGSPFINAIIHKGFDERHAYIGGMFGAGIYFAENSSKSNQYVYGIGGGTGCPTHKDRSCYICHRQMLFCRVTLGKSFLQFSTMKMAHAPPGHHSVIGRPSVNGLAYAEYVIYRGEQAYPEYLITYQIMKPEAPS
Source text: (§1) The human tankyrase 1 PARP catalytic domain, TNKS1P, was cloned into a pDONR221 vector using the Invitrogen Gateway Technology. This entry clone was then subcloned into the destination vector pDEST20 to obtain the N-terminal Glutathione S-transferase (GST)-tagged fusion protein. GST-TNKS1P was then expressed in Sf21 cells using the Invitrogen baculovirus expression system (Invitrogen-Bac-to-Bac® Baculovirus Expression System, Version D). The protein was purified by a GSTrap column (GE Healthcare). The N-terminal GST-tagged tankyrase 2 protein PARP domain, TNKS2P, was cloned, expressed, and purified in a similar manner. Human PARP1 (Cat. No. 4668-100-01) and activated DNA (Cat. No. 4671-096-06) were purchased from Trevigen, Inc. PARP2 (Cat. No. ALX-201-064-C020) was purchased from Alexis Biochemical.
The % Inhibition was calculated as: (Control−Sample)/(Control−Background)*100. “Control” is the average value of 8 wells without compound; and “Background” is the average of 8 wells mixed with 5× quenching solution measured prior to initiation of the reaction.

[3] = biological target: TNKS2 (GST-tagged tankyrase 2 PARP domain, TNKS2P) (Homo sapiens (Human), UniProt Q9H2K2); assay: TNKS2 autoparsylation enzymatic assay (LC/MS detection of nicotinamide); format: biochemical; settings: 20 nM enzyme, 250 μM β-NAD+, 60 min, read-out: TNKS2 AP IC50
TNKS2 (GST-tagged tankyrase 2 PARP domain, TNKS2P), sequence (Q9H2K2 959-1164): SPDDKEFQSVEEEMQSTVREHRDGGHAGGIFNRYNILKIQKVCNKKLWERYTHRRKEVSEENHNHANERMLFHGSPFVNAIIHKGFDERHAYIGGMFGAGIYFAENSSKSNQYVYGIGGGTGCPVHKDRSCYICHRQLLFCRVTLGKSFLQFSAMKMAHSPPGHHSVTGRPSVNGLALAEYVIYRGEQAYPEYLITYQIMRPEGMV
Source text: as §1, with “manner.” for “manner. Human PARP1 (Cat. No. 4668-100-01) and activated DNA (Cat. No. 4671-096-06) were purchased from Trevigen, Inc. PARP2 (Cat. No. ALX-201-064-C020) was purchased from Alexis Biochemical.”
The % Inhibition was calculated as: (Control−Sample)/(Control−Background)*100.

Compound	IC50 ([1]; Homo sapiens)	IC50 [2]	IC50 [3]	IC50 [1]
O=C(CCc1c[nH]c2ccccc12)N(Cc1nc2c(c(=O)[nH]1)COCC2)Cc1cccs1 [Example 3, 3-(1H-Indol-3-yl)-N-(4-oxo-3,5,7,8-tetrahydro-4H-pyrano[4,3-d]pyrimidin-2-ylmethyl)-N-thiophen-2-ylmethyl-propionamide]	9.31 ± 3.9 µM			
O=C(CCc1cccc(F)c1)N(Cc1nc2c(c(=O)[nH]1)COCC2)Cc1cccs1 [Example 5, 3-(3-Fluorophenyl)-N-((4-oxo-4,5,7,8-tetrahydro-3H-pyrano[4,3-d]pyrimidin-2-yl)methyl)-N-(thiophen-2-ylmethyl)propanamide]		1.58 ± 0.014 µM		
O=C(CCc1ccccc1O)N(Cc1nc2c(c(=O)[nH]1)COCC2)Cc1cccs1 [Example 6, 3-(2-Hydroxy-phenyl)-N-(4-oxo 3,5,7,8-tetrahydro-4H-pyrano[4,3-d]pyrimidin-2-ylmethyl)-N-thiophen-2-ylmethyl-propionamide]		5.19 ± 0.227 µM		
O=C(CCc1ccc(O)cc1)N(Cc1nc2c(c(=O)[nH]1)COCC2)Cc1cccs1 [Example 8, 3-(4-Hydroxy-phenyl)-N-(4-oxo-3,5,7,8-tetrahydro-4H-pyrano[4,3-d]pyrimidin-2-ylmethyl)-N-thiophen-2-ylmethyl-propionamide]		1.42 ± 0.04 µM		
O=c1[nH]c(CN(Cc2cccs2)S(=O)(=O)Cc2ccccc2)nc2c1COCC2 [Example 9, N-((4-Oxo-4,5,7,8-tetrahydro-3H-pyrano[4,3-d]pyrimidin-2-yl)methyl)-1-phenyl-N-(thiophen-2-ylmethyl)methanesulfonamide]	0.9 ± 0.23 µM			
O=c1[nH]c(CN(Cc2cccs2)S(=O)(=O)CCc2ccccc2)nc2c1COCC2 [Example 10, 2-Phenyl-ethanesulfonic acid (4-oxo-3,5,7,8-tetrahydro-4H-pyrano[4,3-d]pyrimidin-2-ylmethyl)-thiophen-2-ylmethyl-amide]	2.43 ± 0.94 µM			
O=C(CCc1ccncc1)N(Cc1nc2c(c(=O)[nH]1)COCC2)Cc1cccs1 [Example 11, N-((4-Oxo-4,5,7,8-tetrahydro-3H-pyrano[4,3-d]pyrimidin-2-yl)methyl)-3-(pyridin-4-yl)-N-(thiophen-2-ylmethyl)propanamide]		4.17 ± 0.26 µM		
O=C(CCc1ccccc1)N(Cc1nc2c(c(=O)[nH]1)COCC2)CC1CCCC1 [Example 13, N-Cyclopentylmethyl-N-(4-oxo-3,5,7,8-tetrahydro-4H-pyrano[4,3-d]pyrimidin-2-ylmethyl)-3-phenyl-propionamide]	4.09 ± 1.29 µM	4.78 ± 0.36 µM	995 ± 94 nM	
O=C(CCc1ccccc1)N(Cc1nc2c(c(=O)[nH]1)COCC2)Cc1ccccc1F [Example 14, N-(2-Fluorobenzyl)-N-((4-oxo-4,5,7,8-tetrahydro-3H-pyrano[4,3-d]pyrimidin-2-yl)methyl)-3-phenylpropanamide]	4.09 ± 0.1 µM	5.61 ± 0.24 µM	1050 ± 50 nM	
CCN(Cc1nc2c(c(=O)[nH]1)COCC2)C(=O)CCc1ccccc1 [Example 15, N-Ethyl-N-((4-oxo-4,5,7,8-tetrahydro-3H-pyrano[4,3-d]pyrimidin-2-yl)methyl)-3-phenylpropanamide]		> 19 µM		
CC(C)N(Cc1nc2c(c(=O)[nH]1)COCC2)C(=O)CCc1ccccc1 [Example 16, N-Isopropyl-N-((4-oxo-4,5,7,8-tetrahydro-3H-pyrano[4,3-d]pyrimidin-2-yl)methyl)-3-phenylpropanamide]	34.9 µM	> 19 µM	5390 ± 1630 nM	
CC(C)(C)C(=O)CN(Cc1nc2c(c(=O)[nH]1)COCC2)C(=O)CCc1ccccc1 [Example 17, N-(3,3-Dimethyl-2-oxobutyl)-N-((4-oxo-4,5,7,8-tetrahydro-3H-pyrano[4,3-d]pyrimidin-2-yl)methyl)-3-phenylpropanamide]	14.3 ± 1 µM	17.1 ± 2 µM	2990 ± 36 nM	
O=C(CCc1ccccc1)N(Cc1nc2c(c(=O)[nH]1)COCC2)Cc1nccs1 [Example 19, N-((4-Oxo-4,5,7,8-tetrahydro-3H-pyrano[4,3-d]pyrimidin-2-yl)methyl)-3-phenyl-N-(thiazol-2-ylmethyl)propanamide]	8.56 ± 0.42 µM	11.4 ± 0.4 µM	2030 ± 40 nM	
O=C(CCc1ccccc1)N(Cc1nc2c(c(=O)[nH]1)COCC2)Cc1ncco1 [Example 20, N-(Oxazol-2-ylmethyl)-N-((4-oxo-4,5,7,8-tetrahydro-3H-pyrano[4,3-d]pyrimidin-2-yl)methyl)-3-phenylpropanamide]	14.3 ± 4 µM	4.6 ± 0.2 µM	1700 ± 30 nM	
O=C(CCc1ccccc1)N(Cc1nc2c(c(=O)[nH]1)COCC2)Cc1ccc(Cl)s1 [Example 21, N-((5-Chlorothiophen-2-yl)methyl)-N-((4-oxo-4,5,7,8-tetrahydro-3H-pyrano[4,3-d]pyrimidin-2-yl)methyl)-3-phenylpropanamide]	1.97 ± 0.56 µM	1.61 ± 0.11 µM	318 ± 9 nM	
O=C(CCc1ccccc1)N(Cc1nc2c(c(=O)[nH]1)COCC2)Cc1cncs1 [Example 22, N-((4-Oxo-4,5,7,8-tetrahydro-3H-pyrano[4,3-d]pyrimidin-2-yl)methyl)-3-phenyl-N-(thiazol-5-ylmethyl)propanamide]	18.2 ± 4.5 µM	17.5 ± 1 µM	3480 ± 710 nM	
O=C(CCc1ccccc1)N(CCO)Cc1nc2c(c(=O)[nH]1)COCC2 [Example 23, N-(2-Hydroxy-ethyl)-N-(4-oxo-3,5,7,8-tetrahydro-4H-pyrano[4,3-d]pyrimidin-2-ylmethyl)-3-phenyl-propionamide]	> 50 µM	16.93 ± 0.02 µM	2680 ± 77 nM	
C[C@@H](c1ccccc1)N(Cc1nc2c(c(=O)[nH]1)COCC2)S(=O)(=O)Cc1ccccc1 [Example 24, (S)—N-((4-Oxo-4,5,7,8-tetrahydro-3H-pyrano[4,3-c]pyrimidin-2-yl)methyl)-1-phenyl-N-(1-phenylethyl)methanesulfonamide]	15.7 ± 0.8 µM	18.1 ± 1.9 µM	3120 ± 60 nM	
C[C@H](c1ccccc1)N(Cc1nc2c(c(=O)[nH]1)COCC2)S(=O)(=O)Cc1ccccc1 [Example 25, (R)—N-((4-Oxo-4,5,7,8-tetrahydro-3H-pyrano[4,3-d]pyrimidin-2-yl)methyl)-1-phenyl-N-(1-phenylethyl)methanesulfonamide]	23.2 ± 7.9 µM	9.08 ± 0.76 µM	1850 ± 60 nM	
O=C(CCc1ccccc1F)N(Cc1ccc[nH]1)Cc1nc2c(c(=O)[nH]1)COCC2 [Example 26, N-((1H-Pyrrol-2-yl)methyl)-3-(2-fluorophenyl)-N-((4-oxo-4,5,7,8-tetrahydro-3H-pyrano[4,3-d]pyrimidin-2-yl)methyl)propanamide]	5 ± 0.72 µM	1.17 ± 0.12 µM	235 ± 24 nM	
N-((4-Oxo-4,5,7,8-tetrahydro-3H-pyrano[4,3-d]pyrimidin-2-yl)methyl)-3-(pyridin-4-yl)-N-(thiophen-2-ylmethyl)propanamide [Example 12]		14.6 ± 0.4 µM		41 ± 1.6 µM
